For four compounds, residual activity results are on record in the kinase profiling compilation of Christmann-Franck et al. (2016).

Some targets named below: CDK1 CCNA2 (human) (UniProt P06493+P20248); CDK1 CCNB1 (human) (UniProt P06493+P14635); CDK2 CCNA2 (human) (UniProt P24941+P20248); CDK2 CCNE1 (human) (UniProt P24941+P24864); CDK3 CCNE1 (human) (UniProt Q00526+P24864); CDK4 CCND1 (human) (UniProt P24385+P11802); CDK4 CCND3 (human) (UniProt P30281+P11802); CDK5 CDK5R1 p25 (human) (UniProt Q00535+Q15078); CDK5 CDK5R1 p35 (human) (UniProt Q00535+Q15078); CDK6 CCND1 (human) (UniProt Q00534+P24385); CDK6 CCND3 (human) (UniProt P30281+Q00534); CDK7 CCNH MNAT1 (human) (UniProt P50613+P51948+P51946); CDK9 CCNK (human) (UniProt O75909+P50750); CDK9 CCNT1 (human) (UniProt P50750+O60563); DYRK1B (human) (UniProt Q9Y463); LTK (human) (UniProt P29376); MAP3K7 TAB1 (human) (UniProt O43318+Q15750); STK33 (human) (UniProt Q9BYT3); PRKCH (human) (UniProt P24723).

Experiment in all cases: radiometric filter-binding kinase assay, Kinase HotSpot
Holding throughout (conditions): compound 0.5 µM; ATP 10 µM

Sequence of CDK6 CCND3 (human) (P30281 whole entry, looked up): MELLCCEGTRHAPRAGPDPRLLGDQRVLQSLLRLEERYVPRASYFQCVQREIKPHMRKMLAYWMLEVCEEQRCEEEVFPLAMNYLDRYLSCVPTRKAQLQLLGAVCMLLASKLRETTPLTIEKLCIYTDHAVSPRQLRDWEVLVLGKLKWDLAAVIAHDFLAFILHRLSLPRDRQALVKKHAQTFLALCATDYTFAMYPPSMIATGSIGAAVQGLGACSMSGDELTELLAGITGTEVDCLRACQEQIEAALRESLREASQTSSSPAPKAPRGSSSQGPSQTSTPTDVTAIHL
Sequence of CDK6 CCND3 (human) (Q00534 whole entry, looked up): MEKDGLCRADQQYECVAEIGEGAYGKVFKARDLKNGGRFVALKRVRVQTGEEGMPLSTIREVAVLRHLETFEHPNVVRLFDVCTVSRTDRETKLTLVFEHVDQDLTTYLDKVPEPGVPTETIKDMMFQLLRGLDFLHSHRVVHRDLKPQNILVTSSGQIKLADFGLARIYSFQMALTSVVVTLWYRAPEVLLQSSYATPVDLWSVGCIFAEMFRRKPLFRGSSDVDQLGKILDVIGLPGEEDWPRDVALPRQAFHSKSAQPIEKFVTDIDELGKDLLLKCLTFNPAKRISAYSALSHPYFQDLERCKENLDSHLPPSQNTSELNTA
Sequence of LTK (human) (P29376 whole entry, looked up): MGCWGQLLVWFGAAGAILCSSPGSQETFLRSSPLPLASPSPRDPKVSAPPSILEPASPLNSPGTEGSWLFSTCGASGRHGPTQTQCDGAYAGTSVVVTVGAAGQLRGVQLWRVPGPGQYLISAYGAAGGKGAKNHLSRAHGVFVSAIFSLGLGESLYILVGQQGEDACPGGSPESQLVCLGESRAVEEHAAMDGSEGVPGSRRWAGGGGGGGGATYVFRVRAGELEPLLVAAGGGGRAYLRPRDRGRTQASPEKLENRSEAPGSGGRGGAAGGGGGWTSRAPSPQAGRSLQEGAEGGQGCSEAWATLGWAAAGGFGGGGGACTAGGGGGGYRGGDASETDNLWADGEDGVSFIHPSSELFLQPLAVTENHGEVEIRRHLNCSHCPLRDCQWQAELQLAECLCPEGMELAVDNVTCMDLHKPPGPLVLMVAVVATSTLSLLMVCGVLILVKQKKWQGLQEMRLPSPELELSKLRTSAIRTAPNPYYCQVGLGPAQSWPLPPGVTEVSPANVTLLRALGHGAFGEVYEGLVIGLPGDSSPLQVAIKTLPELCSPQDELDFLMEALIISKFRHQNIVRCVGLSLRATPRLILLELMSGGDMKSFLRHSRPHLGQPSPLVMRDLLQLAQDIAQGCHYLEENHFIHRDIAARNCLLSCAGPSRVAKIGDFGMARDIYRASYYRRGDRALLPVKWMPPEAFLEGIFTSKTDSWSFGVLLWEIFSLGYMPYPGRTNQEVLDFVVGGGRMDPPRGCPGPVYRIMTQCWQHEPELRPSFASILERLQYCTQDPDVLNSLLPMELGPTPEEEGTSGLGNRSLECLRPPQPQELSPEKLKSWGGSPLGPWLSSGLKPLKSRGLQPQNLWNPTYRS
Sequence of CDK9 CCNT1 (human) (O60563 whole entry, looked up): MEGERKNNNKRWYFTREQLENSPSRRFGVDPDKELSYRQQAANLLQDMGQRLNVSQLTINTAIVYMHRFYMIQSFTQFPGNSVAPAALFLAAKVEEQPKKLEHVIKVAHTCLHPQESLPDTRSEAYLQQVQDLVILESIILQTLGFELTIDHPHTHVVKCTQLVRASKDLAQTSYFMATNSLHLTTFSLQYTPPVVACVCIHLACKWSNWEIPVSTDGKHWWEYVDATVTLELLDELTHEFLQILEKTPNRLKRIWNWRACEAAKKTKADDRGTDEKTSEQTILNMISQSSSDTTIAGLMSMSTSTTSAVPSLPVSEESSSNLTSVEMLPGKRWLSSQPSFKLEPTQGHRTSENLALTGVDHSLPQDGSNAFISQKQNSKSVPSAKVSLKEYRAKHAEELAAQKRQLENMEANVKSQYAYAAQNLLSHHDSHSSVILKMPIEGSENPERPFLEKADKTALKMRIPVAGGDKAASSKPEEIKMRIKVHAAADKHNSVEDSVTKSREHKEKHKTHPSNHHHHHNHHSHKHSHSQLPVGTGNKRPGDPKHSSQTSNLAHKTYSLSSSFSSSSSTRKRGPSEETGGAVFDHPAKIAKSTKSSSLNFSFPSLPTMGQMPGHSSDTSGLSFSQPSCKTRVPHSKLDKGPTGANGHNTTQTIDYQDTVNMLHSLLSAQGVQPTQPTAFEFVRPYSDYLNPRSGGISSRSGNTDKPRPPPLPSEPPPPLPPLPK
Sequence of CDK9 CCNT1 (human) (P50750 whole entry, looked up): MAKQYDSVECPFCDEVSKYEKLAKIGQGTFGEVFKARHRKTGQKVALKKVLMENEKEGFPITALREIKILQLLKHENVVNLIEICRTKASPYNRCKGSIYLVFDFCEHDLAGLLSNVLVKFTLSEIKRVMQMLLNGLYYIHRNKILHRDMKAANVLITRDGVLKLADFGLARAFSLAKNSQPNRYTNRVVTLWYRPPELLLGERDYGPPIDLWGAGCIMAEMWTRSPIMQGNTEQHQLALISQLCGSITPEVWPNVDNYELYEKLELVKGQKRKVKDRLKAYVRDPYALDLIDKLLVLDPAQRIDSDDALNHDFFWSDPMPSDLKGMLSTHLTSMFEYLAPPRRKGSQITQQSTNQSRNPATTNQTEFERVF
Sequence of STK33 (human) (Q9BYT3 whole entry, looked up): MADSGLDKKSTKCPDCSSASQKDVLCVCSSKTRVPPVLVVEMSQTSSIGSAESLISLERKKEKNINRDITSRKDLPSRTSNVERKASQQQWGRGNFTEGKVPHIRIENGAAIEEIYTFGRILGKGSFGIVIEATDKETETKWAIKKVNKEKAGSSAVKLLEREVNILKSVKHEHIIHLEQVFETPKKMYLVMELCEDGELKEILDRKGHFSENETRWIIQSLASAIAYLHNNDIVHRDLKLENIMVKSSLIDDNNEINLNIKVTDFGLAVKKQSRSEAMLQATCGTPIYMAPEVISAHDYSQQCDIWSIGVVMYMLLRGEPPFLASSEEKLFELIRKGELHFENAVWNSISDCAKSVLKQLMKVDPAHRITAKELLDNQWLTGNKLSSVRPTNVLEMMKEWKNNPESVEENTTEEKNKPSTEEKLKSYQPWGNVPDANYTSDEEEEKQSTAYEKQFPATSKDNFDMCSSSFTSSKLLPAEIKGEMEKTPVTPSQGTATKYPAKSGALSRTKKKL
Sequence of MAP3K7 TAB1 (human) (O43318 whole entry, looked up): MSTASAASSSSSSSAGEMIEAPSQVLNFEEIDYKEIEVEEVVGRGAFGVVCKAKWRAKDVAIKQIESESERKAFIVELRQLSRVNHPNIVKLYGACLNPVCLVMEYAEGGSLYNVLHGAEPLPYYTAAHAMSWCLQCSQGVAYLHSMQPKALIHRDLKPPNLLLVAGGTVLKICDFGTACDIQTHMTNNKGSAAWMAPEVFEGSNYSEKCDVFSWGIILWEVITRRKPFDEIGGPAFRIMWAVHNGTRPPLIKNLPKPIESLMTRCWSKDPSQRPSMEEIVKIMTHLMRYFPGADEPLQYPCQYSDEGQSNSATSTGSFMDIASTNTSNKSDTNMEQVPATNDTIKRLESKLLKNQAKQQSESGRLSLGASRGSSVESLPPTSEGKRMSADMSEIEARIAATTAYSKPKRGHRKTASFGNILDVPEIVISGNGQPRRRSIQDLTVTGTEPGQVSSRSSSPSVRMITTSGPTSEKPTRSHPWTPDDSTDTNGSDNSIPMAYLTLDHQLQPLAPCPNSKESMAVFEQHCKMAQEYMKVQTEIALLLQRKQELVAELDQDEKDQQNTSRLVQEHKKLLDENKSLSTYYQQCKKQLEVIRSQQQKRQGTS
Sequence of MAP3K7 TAB1 (human) (Q15750 whole entry, looked up): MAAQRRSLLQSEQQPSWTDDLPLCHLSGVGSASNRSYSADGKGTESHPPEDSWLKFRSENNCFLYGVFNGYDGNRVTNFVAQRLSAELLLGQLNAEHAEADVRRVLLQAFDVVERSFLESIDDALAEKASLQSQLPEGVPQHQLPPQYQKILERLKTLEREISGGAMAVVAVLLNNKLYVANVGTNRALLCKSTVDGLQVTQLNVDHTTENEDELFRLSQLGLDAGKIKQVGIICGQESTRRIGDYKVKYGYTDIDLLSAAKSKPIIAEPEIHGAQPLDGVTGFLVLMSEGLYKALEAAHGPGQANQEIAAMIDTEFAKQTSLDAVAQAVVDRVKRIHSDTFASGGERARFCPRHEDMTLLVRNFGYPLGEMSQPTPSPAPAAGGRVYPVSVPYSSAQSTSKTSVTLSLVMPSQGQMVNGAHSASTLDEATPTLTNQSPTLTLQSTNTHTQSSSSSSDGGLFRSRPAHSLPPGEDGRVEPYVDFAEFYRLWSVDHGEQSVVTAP
Sequence of CDK4 CCND1 (human) (P11802 whole entry, looked up): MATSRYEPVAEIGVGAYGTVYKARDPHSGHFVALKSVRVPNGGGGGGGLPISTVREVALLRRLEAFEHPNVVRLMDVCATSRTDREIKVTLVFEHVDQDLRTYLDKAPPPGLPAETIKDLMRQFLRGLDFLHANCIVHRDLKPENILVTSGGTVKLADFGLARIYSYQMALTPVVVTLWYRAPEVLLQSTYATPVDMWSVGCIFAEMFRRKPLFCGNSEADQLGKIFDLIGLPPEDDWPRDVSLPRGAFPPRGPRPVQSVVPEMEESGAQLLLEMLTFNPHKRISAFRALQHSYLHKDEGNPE
Sequence of CDK4 CCND1 (human) (P24385 whole entry, looked up): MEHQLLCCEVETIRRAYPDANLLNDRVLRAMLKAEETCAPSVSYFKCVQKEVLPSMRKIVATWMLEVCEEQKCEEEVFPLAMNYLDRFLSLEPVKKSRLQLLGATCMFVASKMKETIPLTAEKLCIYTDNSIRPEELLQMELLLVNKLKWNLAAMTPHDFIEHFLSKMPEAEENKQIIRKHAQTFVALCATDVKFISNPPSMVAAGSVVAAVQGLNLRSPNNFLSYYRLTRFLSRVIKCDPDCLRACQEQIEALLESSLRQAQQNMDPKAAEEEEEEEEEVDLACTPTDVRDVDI

Take `NCCNc1ncc(C(N)=O)c(Nc2cccc(C(F)(F)F)c2)n1`: the residual activity at CDK1 CCNA2 (human) turned out to be 88.3%; on CDK1 CCNB1 (human) it was 81.7%; at CDK2 CCNA2 (human) it was 97.6%; at CDK2 CCNE1 (human) it was 89%; on CDK3 CCNE1 (human) it was 95.3%; on CDK4 CCND1 (human) it was 108%. The residual activity on CDK4 CCND3 (human) is 94.8%; at CDK5 CDK5R1 p25 (human), 92.4%; at CDK5 CDK5R1 p35 (human) it was 84.2%; on CDK6 CCND1 (human), 94.6%; on CDK6 CCND3 (human), 100%; on CDK7 CCNH MNAT1 (human) it was 98.5%. The residual activity at CDK9 CCNK (human) is 95.6%; on CDK9 CCNT1 (human), 82%; on DYRK1B (human) it was 85.9%; on LTK (human), 84.8%; at MAP3K7 TAB1 (human), 71.2%; at STK33 (human) it was 81.9%.

On to `Cc1cn(-c2cc(NC(=O)c3ccc(C)c(Nc4nccc(-c5cccnc5)n4)c3)cc(C(F)(F)F)c2)cn1`, for which the residual activity at CDK1 CCNA2 (human) came to 99.7%; at CDK1 CCNB1 (human), 97.8%; at CDK2 CCNA2 (human), 95.5%; on CDK2 CCNE1 (human), 98.9%; at CDK3 CCNE1 (human), 95.2%; on CDK4 CCND1 (human), 97%. In addition, the residual activity on CDK4 CCND3 (human) was found to be 108%; on CDK5 CDK5R1 p25 (human) it was 91.7%; at CDK5 CDK5R1 p35 (human), 105%; at CDK6 CCND1 (human), 97.1%; on CDK6 CCND3 (human) it was 128%; on CDK7 CCNH MNAT1 (human), 109%. Further, the residual activity at CDK9 CCNK (human) was determined as 97.9%; at CDK9 CCNT1 (human), 94.7%; at DYRK1B (human), 92.8%; at LTK (human), 101%; on MAP3K7 TAB1 (human) it was 89.2%; on PRKCH (human), 121%. The residual activity on STK33 (human) was 87.1%.

As for `O=C1c2ccccc2-c2n[nH]c3cccc1c23`, the residual activity came out at 85.6% at CDK1 CCNA2 (human); 63.4% at CDK1 CCNB1 (human); 76.1% on CDK2 CCNA2 (human); 79.5% on CDK2 CCNE1 (human); 94.3% at CDK3 CCNE1 (human); 96.3% at CDK4 CCND1 (human). Moreover, the residual activity on CDK4 CCND3 (human) is 104%; on CDK6 CCND1 (human), 88.6%; on CDK6 CCND3 (human), 88.6%; on CDK7 CCNH MNAT1 (human) it was 94.7%; at CDK9 CCNK (human) it was 96%; on CDK9 CCNT1 (human), 99.3%. For the same compound, the residual activity at DYRK1B (human) was determined as 65.7%; at LTK (human), 77.8%; at MAP3K7 TAB1 (human), 59.3%; on PRKCH (human), 87.6%; on STK33 (human) it was 47.7%.

For `CN1CCN(c2ccc3nc(-c4c(N)c5c(F)cccc5[nH]c4=O)[nH]c3c2)CC1`, the residual activity at CDK1 CCNA2 (human) was determined as 93.6%; at CDK1 CCNB1 (human), 90.9%; on CDK2 CCNA2 (human), 91%; at CDK2 CCNE1 (human) it was 92.3%; at CDK3 CCNE1 (human), 92.3%; at CDK4 CCND1 (human) it was 79.5%. Further, the residual activity stood at 89.6% on CDK4 CCND3 (human); 74.6% at CDK6 CCND1 (human); 31.9% on CDK6 CCND3 (human); 104% on CDK7 CCNH MNAT1 (human); 91.1% on CDK9 CCNK (human); 97.7% at CDK9 CCNT1 (human). For the same compound, the residual activity at DYRK1B (human) was 87.9%; at LTK (human) it was 92.5%; at MAP3K7 TAB1 (human), 19.3%; at PRKCH (human) it was 103%; on STK33 (human), 60.7%.
